Reference: patent US5686458A, “Quinazoline deriviates for treating peptic ulcer” (Yuhan Corporation, priority 1992, dated 1997)
Structures can show the parent of a compound that is named as a salt.

Columns and labels:
gastric secretion = test: Inhibition of Gastric Secretion, pylorus-ligated rats (Experiment 2); assay type: in vivo, Sprague-Dawley rats; details: relative to omeprazole (equation III), 20 mg/kg intraduodenally, pylorus-ligated rats, 5 hours
Method: In accordance with the method disclosed in Shay, H., et al., Gastroenterology 5, 43-61(1945), Experiment 2 was carried out.
Sprague-Dawley rats having a body weight of 170±10 g were divided into 3 groups(n=5) and deprived of food for 24 hours before the experiment with free access to water. Under ether anesthesia, the abdomen was incised, and the pylorus was ligated. As a comparative group, Group 1 was administered intraduodenally in a volume of 0.5 ml/200 g of 30% aqueous polyethylene glycol 400 solution. Groups 2 and 3 were administered intraduodenally with the compound of Example 34 and omeprazole, respectively, each of which was suspended in 30% aqueous polyethylene glycol 400 solution at a concentration of 20 mg/kg. After closing the abdominal cavity, the rats were placed for 5 hours and then killed by cervical dislocation. The stomach was extracted to obtain gastric juice.
The gastric juice was centrifuged at 1,000 g to remove precipitates. The amount and acidity of the gastric juice were measured. Relative volumes, relative acid concentrations and relative acid outputs of the test compounds were calculated from equations(I), (II) and (III) and the results are shown in Table 2.
(I) = the average amount of gastric juice of Group 1 - the
average amount of gastric juice of Group 2)/(the average
amount of gastric juice of Group 1 - the average amount
of gastric juice of Group 3)
Relative acid concentration
(II) = (the average acidity of Group 1 - the average
acidity of Group 2)/(the average acidity of Group 1 - the average
(III) = (the total amount of acid output of Group 1 - the
total amount of acid output of Group 2)/(the total amount of acid
output of Group 1 - the total amount of acid output of Group

[1] = target: T1, Proton Pump (H^+ /K^+ ATPase) (Oryctolagus cuniculus, UniProt P27112); test: Inhibition of Proton Pump (H+/K+ ATPase) Activity, in vitro enzyme reaction (Experiment 1); assay type: biochemical, New Zealand white rabbit; details: for Effect ratio: IC50 of Omeprazole / IC50 of test compound; for IC50: K+-stimulated H+/K+ ATPase activity, rabbit gastric microsomes, pH 7.2, 37° C., 15 min prereaction, 30 min reaction, read-out: IC50 of test compound, inhibition (50%) of the proton pump activity
T1 construct: The microsomes thus obtained were used as an enzyme source of the in vitro enzyme reaction study of proton pump; from tissue; host or cells: rabbit stomach, mucosal scrapings, microsomes (180,000 g pellet)
T1 sequence (P27112 whole entry): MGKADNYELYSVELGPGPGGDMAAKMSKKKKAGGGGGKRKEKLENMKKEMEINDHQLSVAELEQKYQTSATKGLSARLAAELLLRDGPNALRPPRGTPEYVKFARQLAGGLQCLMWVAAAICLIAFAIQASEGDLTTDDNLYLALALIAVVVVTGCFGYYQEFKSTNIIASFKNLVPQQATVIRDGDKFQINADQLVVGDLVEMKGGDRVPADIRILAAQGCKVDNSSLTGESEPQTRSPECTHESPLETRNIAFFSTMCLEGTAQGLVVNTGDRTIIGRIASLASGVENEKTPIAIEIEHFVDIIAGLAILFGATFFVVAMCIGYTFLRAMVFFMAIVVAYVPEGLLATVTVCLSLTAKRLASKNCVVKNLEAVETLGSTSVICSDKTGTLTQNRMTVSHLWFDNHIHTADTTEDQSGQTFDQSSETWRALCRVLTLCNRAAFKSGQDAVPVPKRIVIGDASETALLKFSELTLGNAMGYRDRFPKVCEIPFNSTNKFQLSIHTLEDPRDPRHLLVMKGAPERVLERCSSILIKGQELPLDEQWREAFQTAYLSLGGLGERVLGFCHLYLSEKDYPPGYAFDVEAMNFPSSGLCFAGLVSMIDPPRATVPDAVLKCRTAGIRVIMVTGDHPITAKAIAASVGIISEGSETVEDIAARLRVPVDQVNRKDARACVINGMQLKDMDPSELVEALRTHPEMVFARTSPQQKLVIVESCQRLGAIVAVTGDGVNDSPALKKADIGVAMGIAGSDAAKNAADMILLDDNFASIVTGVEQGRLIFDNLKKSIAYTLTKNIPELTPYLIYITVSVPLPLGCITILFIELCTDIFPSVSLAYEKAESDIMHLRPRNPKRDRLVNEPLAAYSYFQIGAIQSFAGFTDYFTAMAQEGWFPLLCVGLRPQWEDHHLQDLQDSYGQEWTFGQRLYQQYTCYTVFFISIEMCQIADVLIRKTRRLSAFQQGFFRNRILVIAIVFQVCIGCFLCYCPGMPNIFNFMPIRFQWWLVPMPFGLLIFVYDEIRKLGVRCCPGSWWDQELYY
T1 sequence (P18597 whole entry partner): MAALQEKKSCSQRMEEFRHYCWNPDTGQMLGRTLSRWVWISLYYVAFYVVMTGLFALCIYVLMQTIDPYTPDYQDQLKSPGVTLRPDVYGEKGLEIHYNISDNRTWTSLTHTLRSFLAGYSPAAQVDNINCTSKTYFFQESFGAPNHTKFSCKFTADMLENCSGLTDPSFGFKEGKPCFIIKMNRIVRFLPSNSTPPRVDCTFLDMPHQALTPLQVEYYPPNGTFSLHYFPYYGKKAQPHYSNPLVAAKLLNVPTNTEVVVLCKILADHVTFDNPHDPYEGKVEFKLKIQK
Method: A New Zealand white rabbit was killed by blowing its head and the stomach was taken out. The contents of the stomach were removed and the stomach walls were washed with was saline. The inner wall of the stomach was scratched out with a slide glass and the cells thus obtained were homogenized in 0.25M sucrose buffer by means of a Teflon-glass homogenizer. The homogenous solution was centrifuged at 10,000 g for 10 minutes and the supernatant was further centrifuged at 20,000 g for 20 minutes. The supernatant thus obtained was centrifuged at an ultra-high speed of 180,000 g for 1 hour. The pellets precipitated were collected by discarding the supernatant and suspended in 50 mM Tris-HCl buffer having pH 7.2. The suspension was dialyzed twice with the same buffer(of 1,000 times volume) for 3 hours and stored into liquid nitrogen.
The above centrifugation and dialysis were carried out at 4° C. The microsomes thus obtained were used as an enzyme source of the in vitro enzyme reaction study of proton pump.
The inhibitory effects of proton pump activity by the compounds of the present invention were measured by the in vitro enzyme reaction study. The proton pump activity stimulated by Mg^++ was used as a negative comparative group, and the activity stimulated by Mg^++ and K^+ was used as a positive comparative group. The comparative compound was omeprazole.
Test tubes were divided into 4 groups: Group 1 as negative comparative group(n=3), Group 2 as positive comparative group(n=3), Group 3(n=5) to be administered with the compound of the present invention and Group 4(n=5) to be administered with the comparative compound. The inhibitory effects of proton pump activity of Groups 3 and 4 were measured by employing the compound prepared in Example 34 and omeprazole, respectively, each of which was dissolved in dimethylsulfoxide at 5 different concentrations.
To each of Groups 1, 2, 3 and 4, were added 0.1 ml of magnesium chloride(40 mM) dissolved in 50 mM Tris-HCl buffer (pH 7.2) and […] of the enzyme source prepared in Experiment 1-1. Then, 0.1 ml of potassium chloride(500 mM) and 0.1 ml of ammonium chloride(100 mM) dissolved in 50 mM Tris-HCl buffer(pH 7.2) were added to all groups except for Group 1.
0.1 ml of dimethylsulfoxide was added to each of Groups 1 and 2; and to Group 3 was added 0.01 ml of the solution in which the compound prepared in Example 34 was dissolved in dimethylsulfoxide at 5 different concentrations. To Group 4, 0.01 ml of the solution prepared by dissolving omprazole in dimethylsulfoxide at 5 different concentrations(37.6, 21.4, 12.2, 7.0 and 4.0 μM) was added. 50 mM Tris-HCl buffer was added thereto so as to make the total volume 0.4 ml.
Thereafter, the test tubes of each Group were placed at 37° C. for 15 minutes for the prereaction. 0.1 ml of ATP solution(33.3 mM), which was prepared by adding Tris-ATP 50 mM to Tris-HCl buffer having pH 7.2, was added until the reaction volume became 0.5 ml. The final concentrations of MgCl2, KCl, NH4 Cl, ATP, enzyme and Tris-HCl were 8 mM, 100 mM, 20 mM, 6.7 mM, 100μg/ml and 50 mM, respectively. After the reaction was carried out at 37° C. for 30 minutes, 25% cold trichloroacetic acid was added to terminate the enzyme reaction. The released inorganic phosphate was measured by an automatic analyzer(SBA 300, Gilford).
The difference between Group 1 and Group 2 represents the proton pump activity activated by K^+ only. The inhibition percentages of Groups 3 and 4 were calculated from Litchfield-wilcoxon equation[see J. Pharmacol. Exptl. Ther. 96, 99(1949)]. The concentrations of the test compounds which inhibit 50% of the proton pump activity are represented as IC50 in Table 1.

Structure (SMILES) | Effect ratio [1] | IC50 [1] [nM] | Relative Acid Output (gastric secretion)
COc1cccc2c(N3CCc4ccccc4[C@@H]3C)nc(Nc3ccc(F)cc3C)nc12.Cl [Example 36, (S)-8-Methoxy-2-(4Fluoro-2-Methylphenylamino)-4-(1-Methyl-1,2,3,4-Tetrahydroisoquinoline-2-Yl)Quinazoline Hydrochloride] | 1.28 | 4000 | 0.67
COc1cccc2c(N3CCc4cc(C)ccc4C3C)nc(Nc3ccc(F)cc3C)nc12.Cl (stereo not drawn) [Example 55, 2-(4-Fluoro-2-Methylphenyl-Amino)-8-Methoxy-4-(1,6-Dimethyl-1,2,3,4-Tetrahydroisoquinoline-2-Yl)Quinazoline Hydrochloride] | ~ 0.80 | ~10000 | 0.50
COc1cccc2c(N3CCc4cc(C)ccc4C3C)nc(Nc3ccc(F)cc3)nc12.Cl (stereo not drawn) [Example 54, 2-(4-Fluorophenylamino)-8-Methoxy-4-(1,6-Dimethyl-1,2,3,4-Tetrahydroisoquinoline-2-Yl)Quinazoline Hydrochloride] | ~ 0.64 | ~12500 | 0.82
CN(c1ccc(F)cc1)c1nc(N2CCc3ccccc3C2)c2ccccc2n1.Cl [Example 20, 2-(4-Fluoro-N-Methylphenyl-Amino)-4-(1,2,3,4-Tetrahydroisoquinoline-2-Yl)Quinazoline Hydrochloride] | 1.10 | 8400 | 0.92

Now those with a lower IC50 [1], led by results:

Effect ratio [1] | IC50 [1] [nM] | Structure (SMILES) | Relative Acid Output (gastric secretion)
4.75 | 2000 | COc1cccc2c(N3CCc4cccc(C)c4C3C)nc(Nc3ccc(F)cc3C)nc12.Cl (stereo not drawn) [Example 53, 2-(4-Fluoro-2-Methylphenyl-Amino)-8-Methoxy-4-(1,8-dimethyl-1,2,3,4-Tetrahydroisoquinoline-2-Yl)Quinazoline Hydrochloride] | 0.92
6.17 | 1200 | Cc1ccccc1Nc1nc(N2CCc3ccccc3C2)c2ccccc2n1 [Example 21, 2-(2-Methylphenylamino)-4-(1,2,3,4-Tetrahydroisoquinoline-2-Yl)QuinazolineHydrochloride] | 0.38
46.00 | 400 | Cc1cc(F)ccc1Nc1nc(N2CCc3ccccc3C2C)c2ccccc2n1.Cl (stereo not drawn) [Example 26, 2-(4-Fluoro-2-Methylphenyl-Amino)-4-(1-Methyl-1,2,3,4-Tetrahydroisoquinoline-2-Yl) Quinazoline Hydrochloride] | 0.25
8.15 | 1300 | COc1cccc2c(N3CCc4ccccc4C3C)nc(N(C)c3ccccc3)nc12.Cl (stereo not drawn) [Example 40, 8-Methoxy-2-(N-Methylphenyl-Amino)-4-(1-Methyl-1,2,3,4-Tetrahydroisoquinoline-2-Yl) Quinazoline Hydrochloride] | 0.82
5.13 | 2000 | COc1cccc2c(N3CCc4ccccc4C3)nc(Nc3ccc(F)cc3C)nc12.Cl [Example 31, 8-Methoxy-2-(4-Fluoro-2-Methyl -Phenylamino)-4-(1,2,3,4-Tetrahydroisoquinoline-2-yl) Quinazoline Hydrochloride] | 0.79
5.88 | 2700 | CC1c2ccccc2CCN1c1nc(Nc2ccc(F)cc2)nc2ccccc12.Cl (stereo not drawn) [Example 25, 2-(4-Fluorophenylamino)-4-(1-Methyl-1,2,3,4-Tetrahydroisoquinoline-2-Yl)Quinazoline Hydrochloride] | 0.50
2.00 | 3800 | COc1cccc2c(N3CCc4ccccc4C3C)nc(N(C)c3ccc(F)cc3)nc12.Cl (stereo not drawn) [Example 41, 8-Methoxy-2-(4-Fluoro-N-methyl-Phenylamino)-4-(1-Methyl-1,2,3,4-Tetrahydroisoquinoline-2-Yl)Quinazoline Hydrochloride] | 0.48
